Reference: patent EP4563571A1, “PRMT5 INHIBITORS” (Beijing Earthwise Technology Co., Ltd., priority 2022, dated 2024)

Experiments:
[1] = tested on: HCT116^MTAP Deletion cells; experiment: Anti-proliferation assay on cells (Cell-Titer Glo, 10 days); assay type: cell-based; details: HCT116^MTAP Deletion cells, 10 days incubation, CTG readout; read-out: HCT116^MTAP Deletion GI50
Method in brief: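 HCT116^MTAP Deletion cells seeded at 50 cells/well and exposed to 10-point 3-fold compound dilutions in duplicate (0.1% DMSO) for 10 days at 37 °C. Viability read by CellTiter-Glo luminescence; IC50 derived from GI50 curves of concentration versus inhibition.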

HCT116 cells = experiment: as above; assay type: cell-based; details: ratio of GI50 values
Procedure: Assay example 1: Method of anti-proliferation assay on cells
HCT116^MTAP Deletion cells were from Pharmaron (China); HCT116 cells were from ATCC; McCoy's 5A medium was purchased from Invitrogen (USA); penicillin-streptomycin and fetal bovine serum were purchased from Gibco (USA); a 384-well plate was purchased from PerkinElmer (USA); and Cell-Titer Glo reagent was purchased from Promega (USA).
Compound dissolution: All the compounds were dissolved in dimethyl sulfoxide (DMSO) and then stored. The compounds were stored at room temperature in a dry condition for 3 months for short term storage or at -20 °C for long term storage.
Cell culture and passaging
The cells were cultured strictly in accordance with ATCC requirements. The cell culture medium (McCoy's 5A medium + 10% fetal bovine serum + 1% penicillin + streptomycin) was transferred to a 15 mL centrifuge tube and centrifuged at 1000 rpm for 5 min. The supernatant was removed. The cells were resuspended with complete culture medium, inoculated into a culture dish at the required density, and cultured in an incubator at 37 °C, 95% humid air, and 5% carbon dioxide. The culture medium was replenished or the cells were passaged every 2-3 days depending on the cell growth condition.
Cell proliferation activity assay
When the confluency of cells in the culture dish reached about 90%, the cells were washed twice with PBS, and then treated with trypsin to become single cells. The cells were counted, and 40µl of the cells was inoculated into each well of a 384-well plate (50 cells/well). The plate was equilibrated at 37 °C and 5% carbon dioxide for 10 to 15 minutes. The compounds were injected into the 384-well plate using Echo550, and positive control and negative control (0.1% DMSO) were set up. Each compound was subjected to a 3-fold dilution, resulting in 10 concentration gradients, in duplicate, and the content of DMSO was 0.1%. The 384-well plate was incubated in a cell culture incubator for 10 days.
Then, 40 µl of cell proliferation assay reagent (CTG) was added to the 384-well plate, and the plate was shaken to mix well. Then, the 384-well plate was incubated at 37 °C and 5% carbon dioxide in the dark for 30 minutes. The data were read using the Envision multifunctional microplate reader. […] According to the different drug concentrations and their corresponding inhibition rates, the GI50 curve was drawn using GraphPad 8.0 software. The data were analyzed, and the final IC50 value was obtained.
In addition, the compounds of the present disclosure also have selectivity for mutant HCT116 cells. […] The selectivity data of representative compounds are shown in Table 2: Table 2 Selectivity data of representative compounds

[2] = tested on: SDMA in HCT116^MTAP Deletion; experiment: In-Cell Western Assay of cellular SDMA; assay type: cell-based; details: HCT116^MTAP Deletion cells, 96 hours; read-out: SDMA inhibition IC50 (µM) in HCT116^MTAP Deletion
Procedure: (§1) Compound dissolution: All the compounds were dissolved in dimethyl sulfoxide (DMSO) and then stored. The compounds were stored at -20°C for long term storage.
(§2) 2.3 Cell culture and passaging
The cells were cultured strictly in accordance with ATCC requirements. […] The supernatant was removed. The cells were resuspended with complete culture medium, inoculated into a culture dish at the required density, and cultured in an incubator at 37 °C, 95% humid air, and 5% carbon dioxide. The culture medium was replenished or the cells were passaged every 2-3 days depending on the cell growth condition.
2.4 In-Cell Western Assay of SDMA
When the confluency of cells in the culture dish reached about 90%, the cells were washed twice with PBS, and then digested with trypsin. 100 µl of the cells was inoculated into each well of a 96-well plate (800 cells/well). The plate was incubated overnight in a 37 °C and 5% CO2 incubator. 50 µL of 3x final concentration of a compound was added to the cell culture plate. Each compound was subjected to a 3-fold dilution, resulting in 10 concentration gradients, in duplicate, and the final concentration of DMSO was 0.5%. The plate was incubated in a 37 °C and 5% CO2 incubator for 96 hours.
150µL of 8% paraformaldehyde was added to each well, and the plate was incubated at room temperature for 15 minutes. The supernatant was discarded. The plate was washed with PBS, and 200µL of freshly prepared 1x Permeabilization buffer was added to each well. The plate was incubated at room temperature for 30 minutes. The supernatant was discarded. 200µL of 1x Blocking buffer was added to each well, and the plate was incubated at room temperature for 2 hours. The supernatant was discarded. 50µL of primary antibody (CST, 1x Incubation buffer 1:500 dilution) was added to each well, and the plate was incubated at 4°C overnight. The supernatant was discarded. 250µL of 1x Washing buffer was added to each well, and the plate was washed three times. 50µL of secondary antibody (IRDye 800CW Goat anti-Rabbit IgG and CellTag 700 dye, 1:800 and 1:500 diluted in Incubation buffer) was added to each well, and the plate was incubated at room temperature for 1 hour. The supernatant was discarded. The plate was washed with 1x Washing buffer. Signals were detected using Licor Odyssey CLX. […] According to the different drug concentrations and their corresponding inhibition rates, the IC50 curve was drawn using GraphPad 8.0 software. The data were analyzed, and the final IC50 value was obtained. […] Table 3 Inhibitory activity on cellular SDMA

SDMA in HCT116 = experiment: In-Cell Western Assay of cellular SDMA; assay type: cell-based; details: HCT116 cells, 96 hours; read-out: SDMA inhibition IC50 (µM) in HCT116
From the text: Assay example 2: Method of In-Cell Western Assay of cellular SDMA
HCT116^MTAP Deletion cells were from Horizon; HCT116 cells were from ATCC; RPMI-1640 medium was purchased from ATCC (USA); penicillin-streptomycin was purchased from Gibco (USA); fetal bovine serum was purchased from ExCell; 96-well plate was purchased from Corning (USA); Symmetric Di-Methyl Arginine Motif [sdme-RG] antibody was purchased from CST (USA); IRDye 800CW Goat anti-Rabbit IgG secondary antibody was purchased from LI-COR (USA), and CellTag 700 stain was purchased from LI-COR (USA).
as §1, §2
The cells were cultured strictly in accordance with ATCC requirements. The cell culture medium (RPMI-1640 medium + 10% serum + 1% penicillin + streptomycin) was transferred to a 15 mL centrifuge tube and centrifuged at 1000 rpm for 5 min. The supernatant was removed. […]
150µL of 8% paraformaldehyde was added to each well, and the plate was incubated at room temperature for 15 minutes. […] Signals were detected using Licor Odyssey CLX. […] The data were analyzed, and the final IC50 value was obtained. […]

[3] = Brain permeability in CD1 mice after oral gavage administration; assay type: in vivo, Mouse/CD1/Male; design: unit not given here; details: 30 mg/kg PO, 0.25-8 hours
Procedure: Assay example 4 Investigation of brain permeability in CD1 mice after oral gavage administration
4.1.1 Information of administration
4.1.3 Collection and processing of blood sample
4.1.4 Evaluation during the in vivo experiment
4.2 Test sample and preparation
4.2.1 Information of test sample
All the samples were analyzed by LC-MS/MS, and the concentration of the drug to be tested in the samples was determined by the standard curve method.
For the plasma assay results, the pharmacokinetic parameters were calculated using WinNonlin (Phoenix™) or other similar software.

CN(C(=O)C(=O)Nc1cnc(N)c2c1cnn2C)C1COc2cc(C(F)(F)F)ccc21 (single isomer, unassigned) [Example 112-P1]
GI50 [1]: < 10 nM | Selectivity multiple of HCT116^MTAP WT GI50/ HCT116^MTAP Deletion GI50 (HCT116 cells): 385 | IC50 [2]: < 0.01 µM | IC50 (SDMA in HCT116): 0.1 to 1 µM | Brain AUClast/D ([3]; brain): 428 | CSF AUClast/D ([3]; cerebrospinal fluid): 6.15 | Plasma AUClast/D ([3]; plasma): 464
